Laboratory results as given in patent US20230123334A1, “AMINO LIPID COMPOUND, PREPARATION METHOD THEREFOR, AND APPLICATION THEREOF” (SHENZHEN SHENXIN BIOTECHNOLOGY CO., LTD., priority 2020, published 2023).

Tests used:
[1] = test system: HEK293 cells; test: Preliminary screening as mRNA vectors, EGFP mRNA transfection of HEK293 cells; type: cell-based; details: HEK293 cells, 96-well plates, EGFP mRNA 50 ng per well; percentage of GFP fluorescent cells relative to total number of cells (Hoechst)
Method in brief: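 HEK293 cells in DMEM plus 10% FBS transfected in 96-well format with 50 ng EGFP mRNA per well; Lipofectamine2000 served as positive control. Read-out is the percentage of GFP-fluorescent cells among total cells, counted by Hoechst nuclear stain.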

[2] = test system: HEK293 cells; test: Preliminary screening as DNA vectors, GFP transfection of HEK293 cells; type: cell-based; details: HEK293 cells; lipid/DOPE liposome with 75 ng plasmid DNA (psin-EGFP-IRES-Puro); number of cells expressing GFP divided by total number of nuclei (Hoechst)
Method in brief: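 HEK293 cells in DMEM/10% FBS transfected with 75 ng EGFP plasmid per well complexed with amino lipid/DOPE liposomes in pH 5.6 sodium acetate. Hoechst nuclear stain added 20-24 h post-transfection, then cells cultured another 20-24 h. Confocal imaging gives GFP-positive cells as % of total nuclei.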

Row | Structure (SMILES) | Absolute mRNA transfection efficiency in HEK293 cells [1] | Absolute DNA transfection efficiency in HEK293 cells [2]
1 | CCCCCCCCCCCCCCCCSc1nc(NCCN2CCN(C)CC2)nc(SCCCCCCCCCCCCCC)n1 [Compound S14S16D5] | 0.2% | 0.1%
2 | CCCCCCCCCCCCCCCCSc1nc(NCCCN(C)C)nc(SCCCCCCCCCCCCCC)n1 [Compound S14S16D6] | 0.9% | 1.2%
3 | CCCCCCCCCCCCCCCCSc1nc(NCCN(CC)CC)nc(SCCCCCCCCCCCCCC)n1 [Compound S14S16D7] | 1.8% | 1.1%
4 | CCCCCCCCCCCCCCCCSc1nc(NCCCN2CCOCC2)nc(SCCCCCCCCCCCCCC)n1 [Compound S14S16D8] | 0.0% | 0.0%
5 | CCCCCCCCCCCCCCCCSc1nc(NCCCN2CCN(C)CC2)nc(SCCCCCCCCCCCCCC)n1 [Compound S14S16D9] | 0.0% | 0.0%
6 | CCCCCCCCCCCCCCCCSc1nc(NCC2CCN(C)CC2)nc(SCCCCCCCCCCCCCC)n1 [Compound S14S16D10] | 0.8% | 2.7%
7 | CCCCCCCCCCCCCCCCCCSc1nc(NCCN(C)C)nc(SCCCCCCCCCCCCCC)n1 [Compound S14S18D1] | 0.0% | 0.0%
8 | CCCCCCCCCCCCCCCCCCSc1nc(NCCN2CCOCC2)nc(SCCCCCCCCCCCCCC)n1 [Compound S14S18D2] | 0.0% | 0.2%
9 | CCCCCCCCCCCCCCCCCCSc1nc(NCCN2CCCC2)nc(SCCCCCCCCCCCCCC)n1 [Compound S14S18D3] | 0.1% | 2.8%
10 | CCCCCCCCCCCCCCCCCCSc1nc(NCCN2CCCCC2)nc(SCCCCCCCCCCCCCC)n1 [Compound S14S18D4] | 0.8% | 2.5%
11 | CCCCCCCCCCCCCCCCCCSc1nc(NCCN2CCN(C)CC2)nc(SCCCCCCCCCCCCCC)n1 [Compound S14S18D5] | 1.0% | 0.2%
12 | CCCCCCCCCCCCCCCCCCSc1nc(NCCCN(C)C)nc(SCCCCCCCCCCCCCC)n1 [Compound S14S18D6] | 0.2% | 1.2%
13 | CCCCCCCCCCCCCCCCCCSc1nc(NCCN(CC)CC)nc(SCCCCCCCCCCCCCC)n1 [Compound S14S18D7] | 2.7% | 0.9%
14 | CCCCCCCCCCCCCCCCCCSc1nc(NCCCN2CCOCC2)nc(SCCCCCCCCCCCCCC)n1 [Compound S14S18D8] | 0.3% | 0.2%
15 | CCCCCCCCCCCCCCCCCCSc1nc(NCCCN2CCN(C)CC2)nc(SCCCCCCCCCCCCCC)n1 [Compound S14S18D9] | 0.6% | 0.5%
16 | CCCCCCCCCCCCCCCCCCSc1nc(NCC2CCN(C)CC2)nc(SCCCCCCCCCCCCCC)n1 [Compound S14S18D10] | 1.5% | 1.7%
17 | CCCCCCCCCCCCCCCSc1nc(NCCN(C)C)nc(SCCCCCCCCCCCCCCC)n1 [Compound S15S15D1] | 0.5% | 1.0%
18 | CCCCCCCCCCCCCCCSc1nc(NCCN2CCOCC2)nc(SCCCCCCCCCCCCCCC)n1 [Compound S15S15D2] | 0.0% | 0.0%
19 | CCCCCCCCCCCCCCCSc1nc(NCCN2CCCC2)nc(SCCCCCCCCCCCCCCC)n1 [Compound S15S15D3] | 0.2% | 0.0%
